These compounds were tested against T1, human OX2 receptor (Homo sapiens, UniProt O43614) (assay: Measurement of orexin type 2 receptor agonist activity (calcium fluorescence, Fluo-4 AM, FDSS)). Conditions: compound at 3 μM; CHO cells forcibly expressing human OX2 receptor; DMSO = 0%, 10 nM orexin A (human) = 100%.
T1 construct: expressed in transfected cells
T1 sequence (O43614 1-444): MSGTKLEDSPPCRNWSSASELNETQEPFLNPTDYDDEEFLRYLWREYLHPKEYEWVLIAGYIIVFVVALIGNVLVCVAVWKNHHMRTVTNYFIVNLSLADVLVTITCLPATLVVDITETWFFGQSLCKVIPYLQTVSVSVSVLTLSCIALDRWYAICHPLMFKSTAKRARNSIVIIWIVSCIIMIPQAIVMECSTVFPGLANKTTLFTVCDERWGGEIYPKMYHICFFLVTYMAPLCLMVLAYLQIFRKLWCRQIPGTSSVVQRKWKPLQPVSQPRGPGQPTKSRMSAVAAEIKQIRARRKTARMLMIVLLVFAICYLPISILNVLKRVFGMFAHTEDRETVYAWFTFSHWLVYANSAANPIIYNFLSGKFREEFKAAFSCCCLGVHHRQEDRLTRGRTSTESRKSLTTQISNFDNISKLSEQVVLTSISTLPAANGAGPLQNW
Format: cell-based
Procedure, shortened: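 CHO-K1 cells stably expressing human OX2 receptor (residues 1-444) loaded with Fluo-4 AM in HBSS/20 mM HEPES/0.1% BSA with probenecid, 30 min at 37° C. then 30 min at room temperature. After compound addition, calcium fluorescence read for 1 min 40 s; activity (%) scaled to DMSO (0%) and 10 nM orexin A (100%).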

Structure (SMILES)	OX2R agonist activity (3 μM, %)
O=S(=O)(N[C@H]1CCN(C2=NOC(CF)(c3ncc(F)cc3-c3c(F)cccc3F)C2)C1)C1(F)CC1 (stereo partly drawn) [Example 89, N-[(3S)-1-{5-[3-(2,6-difluorophenyl)-5-fluoropyridin-2-yl]-5-(fluoromethyl)-4,5-dihydro-1,2-oxazol-3-yl}pyrrolidin-3-yl]-1-fluorocyclopropane-1-sulfonamide]	93%
CS(=O)(=O)N[C@@H]1CN(C2=NOC(c3ncc(F)cc3-c3c(F)cc(F)cc3F)C2)C[C@@H]1F (stereo partly drawn) [Example 90, N-[(3R,4S)-4-fluoro-1-{5-[5-fluoro-3-(2,4,6-trifluorophenyl)pyridin-2-yl]-4,5-dihydro-1,2-oxazol-3-yl}pyrrolidin-3-yl]methanesulfonamide]	98%
COCS(=O)(=O)N[C@@H]1CN(C2=NO[C@H](c3ncc(C)cc3-c3c(F)cc(F)cc3F)C2)C[C@@H]1F [Example 91, N-[(3R,4S)-4-fluoro-1-{(5S)-5-[5-methyl-3-(2,4,6-trifluorophenyl)pyridin-2-yl]-4,5-dihydro-1,2-oxazol-3-yl}pyrrolidin-3-yl]-1-methoxymethanesulfonamide]	98%
CCS(=O)(=O)N[C@@H]1CN(C2=NO[C@H](c3ncc(C)cc3-c3c(F)cc(F)cc3F)C2)C[C@@H]1F [Example 92, N-[(3R,4S)-4-fluoro-1-{(5S)-5-[5-methyl-3-(2,4,6-trifluorophenyl)pyridin-2-yl]-4,5-dihydro-1,2-oxazol-3-yl}pyrrolidin-3-yl]ethanesulfonamide]	92%
Cc1cnc(C2(CF)CC(N3C[C@@H](NS(C)(=O)=O)C(F)(F)C3)=NO2)c(-c2c(F)cc(F)cc2F)c1 (stereo partly drawn) [Example 93, N-[(3R)-4,4-difluoro-1-{5-(fluoromethyl)-5-[5-methyl-3-(2,4,6-trifluorophenyl)pyridin-2-yl]-4,5-dihydro-1,2-oxazol-3-yl}pyrrolidin-3-yl]methanesulfonamide]	99%
Cc1cnc(C2(C)CC(N3C[C@H](F)[C@H](NS(C)(=O)=O)C3)=NO2)c(-c2c(F)cccc2F)c1 (stereo partly drawn) [Example 96, N-[(3R,4S)-1-{5-[3-(2,6-difluorophenyl)-5-methylpyridin-2-yl]-5-methyl-4,5-dihydro-1,2-oxazol-3-yl}-4-fluoropyrrolidin-3-yl]methanesulfonamide]	99%
Cc1cnc([C@@H]2CC(N3C[C@H](F)[C@H](NS(=O)(=O)C4CC4)C3)=NO2)c(-c2c(F)cc(F)cc2F)c1 [Example 97, N-[(3R,4S)-4-fluoro-1-{(5S)-5-[5-methyl-3-(2,4,6-trifluorophenyl)pyridin-2-yl]-4,5-dihydro-1,2-oxazol-3-yl}pyrrolidin-3-yl]cyclopropanesulfonamide]	103%
O=S(=O)(N[C@@H]1CN(C2=NOC(c3ncc(Cl)cc3-c3c(F)cccc3F)C2)C[C@@H]1F)C1CC1 (stereo partly drawn) [Example 98, N-[(3R,4S)-1-{5-[5-chloro-3-(2,6-difluorophenyl)pyridin-2-yl]-4,5-dihydro-1,2-oxazol-3-yl}-4-fluoropyrrolidin-3-yl]cyclopropanesulfonamide]	108%
Cc1cnc([C@@H]2CC(N3CC[C@H](NS(=O)(=O)C(C)F)C3)=NO2)c(-c2c(F)cccc2F)c1 (stereo partly drawn) [Example 99, N-[(3S)-1-{(5S)-5-[3-(2,6-difluorophenyl)-5-methylpyridin-2-yl]-4,5-dihydro-1,2-oxazol-3-yl}pyrrolidin-3-yl]-1-fluoroethane-1-sulfonamide]	101%
Cc1cnc([C@@H]2CC(N3CC[C@H](NS(=O)(=O)C(C)F)C3)=NO2)c(-c2c(F)cc(F)cc2F)c1 (stereo partly drawn) [Example 100, 1-fluoro-N-[(3S)-1-{(5S)-5-[5-methyl-3-(2,4,6-trifluorophenyl)pyridin-2-yl]-4,5-dihydro-1,2-oxazol-3-yl}pyrrolidin-3-yl]ethane-1-sulfonamide]	99%
O=S(=O)(CF)N[C@H]1CCN(C2=NOC(c3ncc(Cl)cc3-c3c(F)cccc3F)C2)C1 (stereo partly drawn) [Example 101, N-[(3S)-1-{5-[5-chloro-3-(2,6-difluorophenyl)pyridin-2-yl]-4,5-dihydro-1,2-oxazol-3-yl}pyrrolidin-3-yl]-1-fluoromethanesulfonamide]	98%
O=S(=O)(CF)N[C@H]1CCN(C2=NOC(c3ncc(Br)cc3-c3c(F)cccc3F)C2)C1 (stereo partly drawn) [Example 102, N-[(3S)-1-{5-[5-bromo-3-(2,6-difluorophenyl)pyridin-2-yl]-4,5-dihydro-1,2-oxazol-3-yl}pyrrolidin-3-yl]-1-fluoromethanesulfonamide]	95%
CS(=O)(=O)N[C@@H]1CN(C2=NOC(c3ncc(Cl)cc3-c3c(F)cccc3F)C2)C[C@@H]1F (stereo partly drawn) [Example 103, N-[(3R,4S)-1-{5-[5-chloro-3-(2,6-difluorophenyl)pyridin-2-yl]-4,5-dihydro-1,2-oxazol-3-yl}-4-fluoropyrrolidin-3-yl]methanesulfonamide]	96%

The next lines start with the values.

OX2R agonist activity (3 μM, %)	Structure (SMILES)
102%	Cc1cnc(C2(CF)CC(N3C[C@@H](NS(C)(=O)=O)C(F)(F)C3)=NO2)c(-c2c(F)cccc2F)n1 (stereo partly drawn) [Example 104, N-[(3R)-1-{5-[3-(2,6-difluorophenyl)-5-methylpyrazin-2-yl]-5-(fluoromethyl)-4,5-dihydro-1,2-oxazol-3-yl}-4,4-difluoropyrrolidin-3-yl]methanesulfonamide]
97%	Cc1cnc(C2(CF)CC(N3C[C@H](F)[C@H](NS(C)(=O)=O)C3)=NO2)c(-c2c(F)cccc2F)n1 (stereo partly drawn) [Example 105, N-[(3R,4S)-1-{5-[3-(2,6-difluorophenyl)-5-methylpyrazin-2-yl]-5-(fluoromethyl)-4,5-dihydro-1,2-oxazol-3-yl}-4-fluoropyrrolidin-3-yl]methanesulfonamide]
108%	Cc1ccc(C2CC(N3C[C@@H](NS(C)(=O)=O)C(F)(F)C3)=NO2)c(-c2ncc(F)cc2F)c1 (stereo partly drawn) [Example 106, N-[(3R)-1-{5-[2-(3,5-difluoropyridin-2-yl)-4-methylphenyl]-4,5-dihydro-1,2-oxazol-3-yl}-4,4-difluoropyrrolidin-3-yl]methanesulfonamide]
105%	Cc1cnc(C2(CF)CC(N3C[C@@H](NS(C)(=O)=O)C(F)(F)C3)=NO2)c(-c2c(F)cccc2F)c1 (stereo partly drawn) [Example 108, N-[(3R)-1-{5-[3-(2,6-difluorophenyl)-5-methylpyridin-2-yl]-5-(fluoromethyl)-4,5-dihydro-1,2-oxazol-3-yl}-4,4-difluoropyrrolidin-3-yl]methanesulfonamide]
100%	Cc1cnc(C2(CF)CC(N3C[C@H](F)[C@H](NS(C)(=O)=O)C3)=NO2)c(-c2c(F)cc(F)cc2F)c1 (stereo partly drawn) [Example 110, N-[(3R,4S)-4-fluoro-1-{5-(fluoromethyl)-5-[5-methyl-3-(2,4,6-trifluorophenyl)pyridin-2-yl]-4,5-dihydro-1,2-oxazol-3-yl}pyrrolidin-3-yl]methanesulfonamide]
102%	CS(=O)(=O)N[C@@H]1CN(C2=NOC(c3ccc(F)cc3-c3c(F)cccc3F)C2)CC1(F)F (stereo partly drawn) [Example 111, N-{(3R)-4,4-difluoro-1-[5-(2′,5,6′-trifluoro[1,1′-biphenyl]-2-yl)-4,5-dihydro-1,2-oxazol-3-yl]pyrrolidin-3-yl}methanesulfonamide]
